For this test, the target named is human MDM2 protein (amino acids 2-188) (Homo sapiens (Human), UniProt Q00987). Kind of test: TR-FRET assay, p53-MDM2 Assay 2 (modified). In kind it is binding. The settings on record: TR-FRET; 0.1 nM MDM2, 0.1 nM Europium labeled streptavidin, Tecan genios Pro reader; read-out: IC50 p53-MDM2 Assay 2. A digest of the protocol: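 Biotinylated human MDM2 (aa 2–188, 1.25 nM) was preincubated 15 min at room temperature with 0.625 nM Eu-streptavidin, then 10 nM Cy5-p53 peptide (aa 18–26) added for 15 min. TR-FRET ratio 665/620 nm (excitation 340 nm) was read; IC50 came from curve fitting.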
Sequence of human MDM2 protein (amino acids 2-188) (Q00987 2-188): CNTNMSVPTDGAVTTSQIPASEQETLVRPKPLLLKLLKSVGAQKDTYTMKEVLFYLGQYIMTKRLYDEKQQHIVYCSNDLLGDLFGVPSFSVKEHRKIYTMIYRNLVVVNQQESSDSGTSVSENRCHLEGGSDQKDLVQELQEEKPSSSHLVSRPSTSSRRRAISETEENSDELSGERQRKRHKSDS

On to `CNC(=O)c1ccc(OC)c(-c2cc3c(n2C(C)C)[C@@H](c2ccc(Cl)cc2C)N(c2cccc(Cl)c2F)C3=O)c1` [Example 8, 3-[(R)-5-(3-Chloro-2-fluoro-phenyl)-6-(4-chloro-2-methyl-phenyl)-1-isopropyl-4-oxo-1,4,5,6-tetrahydro-pyrrolo[3,4-b]pyrrol-2-yl]-4-methoxy-N-methyl-benzamide], for which the IC50 (in general, the concentration that inhibits the measured activity by half) was 49 nM.

Take `COc1nc(N(C)C)ncc1-c1cc2c(n1C(C)C)[C@H](c1ccc(Cl)cc1)N(c1c[nH]c(=O)c(Cl)c1)C2=O` [Example 188, (S)-5-(5-Chloro-6-oxo-1,6-dihydro-pyridin-3-yl)-6-(4-chloro-phenyl)-2-(2-dimethylamino-4-methoxy-pyrimidin-5-yl)-1-isopropyl-5,6-dihydro-1H-pyrrolo[3,4-b]pyrrol-4-one]: the IC50 was determined as 0.079 nM.

Take `CNc1ncc(-c2cc3c(n2C(C)C)C(c2ccc(C#N)cc2)N(c2cc(Cl)cn(C)c2=O)C3=O)c(OC)n1` (stereo not drawn) [Example 130, 4-[5-(5-Chloro-1-methyl-2-oxo-1,2-dihydro-pyridin-3-yl)-1-isopropyl-2-(4-methoxy-2-methylamino-pyrimidin-5-yl)-4-oxo-1,4,5,6-tetrahydro-pyrrolo[3,4-b]pyrrol-6-yl]-benzonitrile]: the IC50 was found to be 1.08 nM.

For the compound `COc1nc(N(C)C)ncc1-c1cc2c(n1C(C)C)C(c1ccc(Cl)cc1)N(C1CN(C)C(=O)N(C)C1)C2=O` (stereo not drawn) [Example 159, 6-(4-Chloro-phenyl)-2-(2-dimethylamino-4-methoxy-pyrimidin-5-yl)-5-(1,3-dimethyl-2-oxo-hexahydro-pyrimidin-5-yl)-1-isopropyl-5,6-dihydro-1H-pyrrolo[3,4-b]pyrrol-4-one], the IC50 was 0.161 nM.

For `COc1ccccc1-c1cc2c(n1C(C)C)C(C)(c1ccc(Cl)cc1)N(c1cc(Cl)ccc1C)C2=O` (stereo not drawn) [Example 116, 5-(5-Chloro-2-methyl-phenyl)-6-(4-chloro-phenyl)-1-isopropyl-2-(2-methoxy-phenyl)-6-methyl-5,6-dihydro-1H-pyrrolo[3,4-b]pyrrol-4-one], the half-maximal inhibitory concentration (IC50) came to 0.496 nM.

As to `COc1ncc(-c2cc3c(n2C(C)C)C(c2ccc(Cl)cc2)N(c2c[nH]c(=O)c(Cl)c2)C3=O)c(OC)n1` (stereo not drawn) [Example 139, 5-(5-Chloro-6-oxo-1,6-dihydro-pyridin-3-yl)-6-(4-chloro-phenyl)-2-(2,4-dimethoxy-pyrimidin-5-yl)-1-isopropyl-5,6-dihydro-1H-pyrrolo[3,4-b]pyrrol-4-one], the IC50 was 0.266 nM.

`CNc1ncc(-c2cc3c(n2C(C)C)[C@@H](c2ccc(C#N)cc2)N(c2cc(Cl)cn(C)c2=O)C3=O)c(OC)n1` [Example 166, 4-[(R)-5-(5-Chloro-1-methyl-2-oxo-1,2-dihydro-pyridin-3-yl)-1-isopropyl-2-(4-methoxy-2-methylamino-pyrimidin-5-yl)-4-oxo-1,4,5,6-tetrahydro-pyrrolo[3,4-b]pyrrol-6-yl]-benzonitrile]: the IC50 was 293 nM.

In the case of `COc1ccc(CC(=O)O)cc1-c1cc2c(n1C(C)C)C(c1ccc(Cl)cc1)N(c1cc(Cl)c(=O)n(C)c1)C2=O` (stereo not drawn) [Example 118, {3-[5-(5-Chloro-1-methyl-6-oxo-1,6-dihydro-pyridin-3-yl)-6-(4-chloro-phenyl)-1-isopropyl-4-oxo-1,4,5,6-tetrahydro-pyrrolo[3,4-b]pyrrol-2-yl]-4-methoxy-phenyl}-acetic acid], the half-maximal inhibitory concentration (IC50) amounted to 0.311 nM.

`COc1cnc(CC#N)cc1-c1cc2c(n1C(C)C)C(c1ccc(C#N)cc1)N(c1cccc(Cl)c1F)C2=O` (stereo not drawn) [Example 87, 4-[5-(3-Chloro-2-fluoro-phenyl)-2-(2-cyanomethyl-5-methoxy-pyridin-4-yl)-1-isopropyl-4-oxo-1,4,5,6-tetrahydro-pyrrolo[3,4-b]pyrrol-6-yl]-benzonitrile]: the IC50 was 0.359 nM.

Regarding `COc1nc(N(C)C)ncc1-c1cc2c(n1C(C)C)C(c1ccc(Cl)cc1)N(c1cc(Cl)ccc1C#N)C2=O` (stereo not drawn) [Example 100, 4-Chloro-2-[6-(4-chloro-phenyl)-2-(2-dimethylamino-4-methoxy-pyrimidin-5-yl)-1-isopropyl-4-oxo-4,6-dihydro-1H-pyrrolo[3,4-b]pyrrol-5-yl]-benzonitrile], the IC50 amounted to 0.316 nM.

As for `COc1nc(N(C)C)ncc1-c1cc2c(n1C(C)C)C(c1ccc(C#N)c(F)c1)N(c1cc(Cl)c(=O)n(C)c1)C2=O` (stereo not drawn) [Example 194, 4-[5-(5-Chloro-1-methyl-6-oxo-1,6-dihydro-pyridin-3-yl)-2-(2-dimethylamino-4-methoxy-pyrimidin-5-yl)-1-isopropyl-4-oxo-1,4,5,6-tetrahydro-pyrrolo[3,4-b]pyrrol-6-yl]-2-fluoro-benzonitrile], the IC50 was found to be 0.194 nM.

Turning to `COc1nc(N)ncc1-c1cc2c(n1C(C)C)[C@H](c1ccc(C#N)cc1)N(c1cccc(Cl)c1F)C2=O` [Example 154, 4-[(S)-2-(2-Amino-4-methoxy-pyrimidin-5-yl)-5-(3-chloro-2-fluoro-phenyl)-1-isopropyl-4-oxo-1,4,5,6-tetrahydro-pyrrolo[3,4-b]pyrrol-6-yl]-benzonitrile], the 50% inhibitory concentration (IC50) amounted to 0.328 nM.

Consider `COc1ncc(-c2cc3c(n2C(C)C)C(c2ccc(Cl)cc2)N(c2cc(Cl)c(=O)n(C)c2)C3=O)c(OC)n1` (stereo not drawn) [Example 48, 5-(5-Chloro-1-methyl-6-oxo-1,6-dihydro-pyridin-3-yl)-6-(4-chloro-phenyl)-2-(2,4-dimethoxy-pyrimidin-5-yl)-1-isopropyl-5,6-dihydro-1H-pyrrolo[3,4-b]pyrrol-4-one], for which the IC50 came out at 0.188 nM.

Consider `COc1ncc(-c2cc3c(n2C(C)C)C(c2ccc(C#N)cc2)N(c2cc(C)nn2C)C3=O)c(OC)n1` (stereo not drawn) [Example 179, 4-[2-(2,4-Dimethoxy-pyrimidin-5-yl)-5-(2,5-dimethyl-2H-pyrazol-3-yl)-1-isopropyl-4-oxo-1,4,5,6-tetrahydro-pyrrolo[3,4-b]pyrrol-6-yl]-benzonitrile], for which the half-maximal inhibitory concentration (IC50) was determined as 3.46 nM.

`CNC(=O)Cc1cnc(OC)c(-c2cc3c(n2C(C)C)C(c2ccc(C#N)cc2)N(c2cccc(Cl)c2F)C3=O)c1` (stereo not drawn) [Example 85, 2-{5-[5-(3-Chloro-2-fluoro-phenyl)-6-(4-cyano-phenyl)-1-isopropyl-4-oxo-1,4,5,6-tetrahydro-pyrrolo[3,4-b]pyrrol-2-yl]-6-methoxy-pyridin-3-yl}-N-methyl-acetamide]: the IC50 came to 3.16 nM.

Consider `CNc1ncc(-c2cc3c(n2C(C)C)C(c2ccc(Cl)cc2)N(c2cc(Cl)cn(C)c2=O)C3=O)c(OC)n1` (stereo not drawn) [Example 72, 5-(5-Chloro-1-methyl-2-oxo-1,2-dihydro-pyridin-3-yl)-6-(4-chloro-phenyl)-1-isopropyl-2-(4-methoxy-2-methylamino-pyrimidin-5-yl)-5,6-dihydro-1H-pyrrolo[3,4-b]pyrrol-4-one], for which the concentration for half-maximal inhibition (IC50) stood at 0.295 nM.

Consider `COc1ncc(-c2cc3c(n2C(C)C)C(c2ccc(Cl)cc2)N(C2CCC(=O)N(C)C2)C3=O)c(OC)n1` (stereo not drawn) [Example 109, 6-(4-Chloro-phenyl)-2-(2,4-dimethoxy-pyrimidin-5-yl)-1-isopropyl-5-(1-methyl-6-oxo-piperidin-3-yl)-5,6-dihydro-1H-pyrrolo[3,4-b]pyrrol-4-one], for which the IC50 turned out to be 1.6 nM.

For the compound `COc1ncc(-c2cc3c(n2C(C)C)C(c2ccc(Cl)c(F)c2)N(c2cc(Cl)cn(C)c2=O)C3=O)c(OC)n1` (stereo not drawn) [Example 196, 6-(4-Chloro-3-fluoro-phenyl)-5-(5-chloro-1-methyl-2-oxo-1,2-dihydro-pyridin-3-yl)-2-(2,4-dimethoxy-pyrimidin-5-yl)-1-isopropyl-5,6-dihydro-1H-pyrrolo[3,4-b]pyrrol-4-one], the IC50 worked out at 0.395 nM.

With `[2H]C([2H])([2H])Oc1ncc(-c2cc3c(n2C(C)C)[C@@H](c2ccc(Cl)cc2)N(c2cc(Cl)c(=O)n(C)c2)C3=O)c(OC([2H])([2H])[2H])n1` [Example 219, (R)-5-(5-Chloro-1-methyl-6-oxo-1,6-dihydro-pyridin-3-yl)-6-(4-chloro-phenyl)-2-(2,4-d6-dimethoxy-pyrimidin-5-yl)-1-isopropyl-5,6-dihydro-1H-pyrrolo[3,4-b]pyrrol-4-one], the concentration for half-maximal inhibition (IC50) stood at 28.3 nM.

In the case of `COc1cn(C)c(=O)cc1-c1cc2c(n1C(C)C)C(c1ccc(Cl)cc1)N(c1cc(Cl)cnc1OC)C2=O` (stereo not drawn) [Example 205, 5-(5-Chloro-2-methoxy-pyridin-3-yl)-6-(4-chloro-phenyl)-1-isopropyl-2-(5-methoxy-1-methyl-2-oxo-1,2-dihydro-pyridin-4-yl)-5,6-dihydro-1H-pyrrolo[3,4-b]pyrrol-4-one], the half-inhibitory concentration (IC50) stood at 0.198 nM.

Take `COc1ncc(-c2cc3c(n2C(C)C)C(c2ccc(Cl)cc2)N(c2cn(C)nc2C)C3=O)c(OC)n1` (stereo not drawn) [Example 181, 6-(4-Chloro-phenyl)-2-(2,4-dimethoxy-pyrimidin-5-yl)-5-(1,3-dimethyl-1H-pyrazol-4-yl)-1-isopropyl-5,6-dihydro-1H-pyrrolo[3,4-b]pyrrol-4-one]: the IC50 is 2.39 nM.

For `COc1ccc(C(=O)O)cc1-c1cc2c(n1C(C)C)C(c1ccc(Cl)cc1)N(c1cc(Cl)c(=O)n(C)c1)C2=O` (stereo not drawn) [Example 50, 3-[5-(5-Chloro-1-methyl-6-oxo-1,6-dihydro-pyridin-3-yl)-6-(4-chloro-phenyl)-1-isopropyl-4-oxo-1,4,5,6-tetrahydro-pyrrolo[3,4S-b]pyrrol-2-yl]-4-methoxy-benzoic acid], the concentration for half-maximal inhibition (IC50) worked out at 0.234 nM.

On to `COc1ncc(-c2cc3c(n2C(C)C)[C@@H](c2ccc(Cl)cc2)N(c2cc(Cl)c(=O)n(C)c2)C3=O)c(OC)n1` [Example 122, (R)-5-(5-Chloro-1-methyl-6-oxo-1,6-dihydro-pyridin-3-yl)-6-(4-chloro-phenyl)-2-(2,4-dimethoxy-pyrimidin-5-yl)-1-isopropyl-5,6-dihydro-1H-pyrrolo[3,4-b]pyrrol-4-one], for which the half-inhibitory concentration (IC50) stood at 76.9 nM.

On to `COc1ccccc1-c1cc2c(n1C(C)C)C(c1ccc(Cl)cc1)N(c1cc(Cl)c(=O)n(C)c1)C2=O` (stereo not drawn) [Example 46, 5-(5-Chloro-1-methyl-6-oxo-1,6-dihydro-pyridin-3-yl)-6-(4-chloro-phenyl)-1-isopropyl-2-(2-methoxy-phenyl)-5,6-dihydro-1H-pyrrolo[3,4-b]pyrrol-4-one], for which the IC50 was determined as 0.203 nM.

The record behind these values is patent US9365576B2, “Pyrrolopyrrolidinone compounds” (Novartis AG, priority 2012, dated 2016).
